Assay results published in patent US12161616B2, “Combination therapy comprising an omega-3 fatty acid, a folate species and a vitamin B12 species” (Oxford University Innovation Limited, priority 2014, dated 2024).

Tested on: brain atrophy rate in patients with a diagnosis of MCI
Experiment: VITACOG trial: whole brain atrophy per year from MRI scans (SIENA)
Type: in vivo, human
Details: for BAR (brain atrophy rate): entire study group
Method: This study was conducted as a part of the VITACOG trial, ‘Homocysteine and B vitamins in cognitive impairment’, and was carried out according to the principles of the Declaration of Helsinki and received approval of the Oxfordshire NHS research ethics committee A (COREC 04/Q1604/100). All participants gave their written informed consent. The study protocol and participants, along with inclusion and exclusion criteria, have been described in detail elsewhere (Smith et al, PLOS One 2010; 5 (9); e12244.doi10.1371/journal.pone. 0012244). In short, 646 patients above 70 years of age with a diagnosis of MCI were assessed for eligibility. After randomization of eligible subjects, and some withdrawals, 133 started treatment with TrioBe Plus® (0.8 mg folic acid, 0.5 mg vitamin B12, and 20 mg vitamin B6, specifically 0.8 mg folic acid, 0.5 mg cyanocobalamin and 20 mg pyridoxine HCl) while 133 received placebo for a duration of 24 months. Participants were only included in this study if brain atrophy data was available.
The MRI protocol used in the VITACOG study has been described in detail elsewhere (Smith et al referenced above). In short, baseline and follow-up volumetric cranial MRI scans were carried out at the Oxford Centre for Clinical Magnetic Resonance Research using a 1.5 T MRI system (Sonata; Siemens Medical Solutions, Erlangen, Germany). Whole brain atrophy per year was estimated from MR images taken at baseline and follow-up, using the fully automated SIENA protocol which provides accuracy and robustness. Normalized brain volume at baseline was estimated from a single image using a cross-sectional method (SIENAX), and used as a covariate in the statistical analyses.
IBM SPSS for Windows, version 20, was used for all statistical analyses (IBM Corp., Armonk, NY, USA). Skewed fatty acids were normalized using their natural logarithms. Unless otherwise stated, fatty acid concentrations at baseline were used for statistical analyses. The main outcome in this study was to investigate the effect of B vitamin treatment on brain atrophy rates, based on baseline omega-3 fatty acid status. Analyses of variance, were used to further examine associations between the fatty acid variables and tHcy and brain atrophy. Two correction models were used. Model A was adjusted for age, sex, and initial brain volume, while model B also adjusted for plasma tHcy, ApoE status, education level, and baseline levels of diastolic blood pressure, triglyceride concentration, and creatinine concentration. When the entire study population was included in the analysis, tHcy measured at follow-up was used as covariate since this measure most likely represents the average tHcy during the trial. When the analysis was confined to the placebo group, tHcy at baseline was used.
Differences between atrophy rate in the placebo and B vitamin groups were assessed using Student's t test, while brain atrophy rates according to different levels of fatty acids (tertiles), were analyzed using ANCOVA. Where an ANCOVA indicated significant differences between tertiles, Bonferroni corrected post hoc comparisons were made between the lowest and the two higher tertiles. […] P<0.05 was considered statistically significant in all analyses.

[1] = HIGH tHcy at follow-up, middle baseline tertile, Model A
[2] = HIGH tHcy at follow-up, middle baseline tertile, Model B
[3] = HIGH tHcy at follow-up, top baseline tertile, Model A
[4] = HIGH tHcy at follow-up, top baseline tertile, Model B
[5] = LOW tHcy at follow-up, middle baseline tertile, Model A
[6] = LOW tHcy at follow-up, middle baseline tertile, Model B
[7] = LOW tHcy at follow-up, top baseline tertile, Model A
[8] = LOW tHcy at follow-up, top baseline tertile, Model B
[9] = HIGH tHcy at follow-up, lowest baseline tertile (DHA <245 μM, EPA <136 μM), Model A
[10] = HIGH tHcy at follow-up, lowest baseline tertile (DHA <245 μM, EPA <136 μM), Model B
[11] = HIGH tHcy at follow-up, middle baseline tertile (DHA 245-345 μM, EPA 136-222 μM), Model A
[12] = HIGH tHcy at follow-up, middle baseline tertile (DHA 245-345 μM, EPA 136-222 μM), Model B
[13] = HIGH tHcy at follow-up, top baseline tertile (DHA >345 μM, EPA >222 μM), Model A
[14] = HIGH tHcy at follow-up, top baseline tertile (DHA >345 μM, EPA >222 μM), Model B
[15] = LOW tHcy at follow-up, lowest baseline tertile (DHA <245 μM, EPA <136 μM), Model A
[16] = LOW tHcy at follow-up, lowest baseline tertile (DHA <245 μM, EPA <136 μM), Model B
[17] = LOW tHcy at follow-up, middle baseline tertile (DHA 245-345 μM, EPA 136-222 μM), Model A
[18] = LOW tHcy at follow-up, middle baseline tertile (DHA 245-345 μM, EPA 136-222 μM), Model B
[19] = LOW tHcy at follow-up, top baseline tertile (DHA >345 μM, EPA >222 μM), Model A
[20] = LOW tHcy at follow-up, top baseline tertile (DHA >345 μM, EPA >222 μM), Model B

| SMILES | Percent change of BAR compared to the lowest fatty acid tertile [1] [%] | Percent change of BAR compared to the lowest fatty acid tertile [2] [%] | Percent change of BAR compared to the lowest fatty acid tertile [3] [%] | Percent change of BAR compared to the lowest fatty acid tertile [4] [%] | Percent change of BAR compared to the lowest fatty acid tertile [5] [%] | Percent change of BAR compared to the lowest fatty acid tertile [6] [%] | Percent change of BAR compared to the lowest fatty acid tertile [7] [%] | Percent change of BAR compared to the lowest fatty acid tertile [8] [%] | BAR (brain atrophy rate) [9] | BAR (brain atrophy rate) [10] | BAR (brain atrophy rate) [11] | BAR (brain atrophy rate) [12] | BAR (brain atrophy rate) [13] | BAR (brain atrophy rate) [14] | BAR (brain atrophy rate) [15] | BAR (brain atrophy rate) [16] | BAR (brain atrophy rate) [17] | BAR (brain atrophy rate) [18] | BAR (brain atrophy rate) [19] | BAR (brain atrophy rate) [20] |
| --- | --- | --- | --- | --- | --- | --- | --- | --- | --- | --- | --- | --- | --- | --- | --- | --- | --- | --- | --- | --- |
| CC/C=C\C/C=C\C/C=C\C/C=C\C/C=C\CCCC(=O)O [20:5n-3 (EPA), Eicosapentaenoic acid] | 18 | 11 | 9.5 | 4.3 | −30 | −27 | −33 | −40 | 1.02 percent brain whole brain reduction per year | 0.98 percent brain whole brain reduction per year | 1.19 percent brain whole brain reduction per year | 1.20 percent brain whole brain reduction per year | 1.11 percent brain whole brain reduction per year | 1.13 percent brain whole brain reduction per year | 1.07 percent brain whole brain reduction per year | 1.14 percent brain whole brain reduction per year | 0.73 percent brain whole brain reduction per year | 0.76 percent brain whole brain reduction per year | 0.69 percent brain whole brain reduction per year | 0.63 percent brain whole brain reduction per year |
| CC/C=C\C/C=C\C/C=C\C/C=C\C/C=C\C/C=C\CCC(=O)O [22:6n-3 (DHA), Docosahexaenoic acid] | 7.7 | 5.7 | 8.6 | 0.4 | −34 | −36 | −37 | −43 | 1.08 percent brain whole brain reduction per year | 1.06 percent brain whole brain reduction per year | 1.12 percent brain whole brain reduction per year | 1.14 percent brain whole brain reduction per year | 1.13 percent brain whole brain reduction per year | 1.08 percent brain whole brain reduction per year | 1.09 percent brain whole brain reduction per year | 1.20 percent brain whole brain reduction per year | 0.71 percent brain whole brain reduction per year | 0.70 percent brain whole brain reduction per year | 0.68 percent brain whole brain reduction per year | 0.62 percent brain whole brain reduction per year |
